Common to all, as to test: DTP human tumour cell line panel, 48 h
Assay [1] concerns HOP-18.
In assay [2] the test system is SNB-78.
Assay [3] deals with DLD-1.
The test system of assay [4] is DMS-273.
In assay [5] the test system is LXFL 529.
Assay [6] has as its system KM-20L2.
For assay [7], the system named is XF498.
Assay [8] has as its system M19-MEL.
The test system of assay [9] is RXF 631.

The text below walks through data of ChEMBL document CHEMBL1201862, “PubChem BioAssay data set” (2004).

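Grown in 96-well plates, cells were treated for 48 hours with each compound at five concentrations. Insufficient inhibition: endpoint recorded as highest concentration tested. Here, GI50 denotes the concentration required for 50% inhibition of growth.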 Calls of active or inactive are those of the source. Cut-off read from the data, not from the text of the source: active = GI50 up to about 1.1 µM and inactive = higher.

For the compound `CCCCCCCSCC1OC(n2cnc3c(N)ncnc32)C(O)C1O` (stereo not drawn), the GI50 is 17.9 µM (inactive) in [1]; > 100 µM (inactive) in assay [2]; 7.64 µM (inactive) in [3]; 21.3 µM (inactive) in [4]; 12.3 µM (inactive) in assay [5]; > 100 µM (inactive) in assay [6]. For the same compound, the GI50 in assay [7] was 63.4 µM (inactive).
With `CCCC(=O)OCC1OC(n2ccc(N)nc2=O)C(OC(=O)CCC)C1OC(=O)CCC` (stereo not drawn), the GI50 in [1] is 1 µM (active); in assay [2], > 100 µM (inactive); in assay [8], 43.2 µM (inactive); in [3], > 100 µM (inactive); in [4] it was 36.7 µM (inactive); in assay [6], 11.4 µM (inactive).
Take `CC(=O)C(CN(C)C)C(c1ccccc1)c1c(O)c2ccccc2oc1=O` (stereo not drawn): the GI50 in assay [1], in assay [2], in [8], in assay [3], in assay [4] and in assay [5] was > 100 µM (inactive) each time. The GI50 in assay [6] and in [7] was > 100 µM (inactive) in each case.
Turning to `O=c1cc2ccccc2nn1Cc1ccccc1Cl`, the GI50 in assay [1], in assay [2], in [8], in assay [3], in [4] and in [6] was > 100 µM (inactive) throughout. Further, the GI50 in [7] was 80.2 µM (inactive).
Regarding `O=C(CC(=O)c1ccccc1)CC(O)(c1ccccc1)c1ccccc1`, the GI50 in [2] is 21 µM (inactive); in assay [8] it was 3.12 µM (inactive); in [3] it was 4.18 µM (inactive); in assay [5] it was 3.24 µM (inactive); in [6] it was 5.25 µM (inactive).
With `CCOc1ccc(C2=C(Cl)c3cc(OC)c(OC)cc3C2Cl)cc1` (stereo not drawn), the GI50 was 42.8 µM (inactive) in [1]; 27.4 µM (inactive) in [2]; 45.2 µM (inactive) in assay [8]; 37.6 µM (inactive) in [3]; 37.9 µM (inactive) in [4]; 26.8 µM (inactive) in assay [5]. Further, the GI50 in [6] was 38.8 µM (inactive); in [7] it was 19.6 µM (inactive).
For `COc1ccc(C=O)c(NC(=O)C(C)C)c1`, the GI50 in assay [1] was 39.7 µM (inactive); in assay [2], 66.1 µM (inactive); in [8], 21 µM (inactive); in assay [4], 28.9 µM (inactive); in assay [5], 44.9 µM (inactive); in assay [6], 51.5 µM (inactive). The GI50 in assay [7] was 21.9 µM (inactive).
As for `C/C(=N\NC(=S)Nc1ccc([N+](=O)[O-])cc1S(=O)(=O)O)c1ccccn1`, the GI50 in [1] was 40.1 µM (inactive); in assay [2], > 100 µM (inactive); in assay [8], 43.8 µM (inactive); in [3], 41.2 µM (inactive); in assay [4] it was 37 µM (inactive); in [5] it was 61 µM (inactive). For the same compound, the results for the GI50 in assay [9], in assay [6] and in assay [7] were > 100 µM (inactive), 26.3 µM (inactive) and 30 µM (inactive), respectively.
For the compound `O=C1c2ccccc2CCCCCCCCCCC12OCCCO2`, the GI50 was 47.9 µM (inactive) in [1]; 22.6 µM (inactive) in assay [2]; 36.6 µM (inactive) in [8]; 60.4 µM (inactive) in assay [3]; 70.5 µM (inactive) in assay [4]; 58.9 µM (inactive) in assay [5]. The GI50 in assay [6] was 22.9 µM (inactive).
As for `CN(C)CC1(Cc2ccccc2)CC/C(=C\c2ccccc2)C1=O` (stereo not drawn), the GI50 is > 100 µM (inactive) in assay [1]; 52.2 µM (inactive) in [2]; 26.8 µM (inactive) in [8]; 27.6 µM (inactive) in [3]; 36.5 µM (inactive) in assay [4]; 37.2 µM (inactive) in [5]. Moreover, the GI50 is 29.3 µM (inactive) in assay [9], 17.2 µM (inactive) in [6] and 80.9 µM (inactive) in [7].
On to `CC(C)Cc1ccc(C(C)C(=O)N2CCN(/C=C/c3ccccc3)CC2)cc1` (stereo not drawn), for which the GI50 in assay [1] was 21.5 µM (inactive); in assay [2], 25.1 µM (inactive); in assay [8], 15.7 µM (inactive); in [3] it was 13.7 µM (inactive); in [4] it was 11.4 µM (inactive); in assay [6], 15.5 µM (inactive). Besides, in assay [7], the GI50 was 13.8 µM (inactive).
Regarding `c1ccc(N2CCN(CCN3CCc4c([nH]c5ccccc45)C3c3cccnc3)CC2)cc1` (stereo not drawn), the GI50 was > 100 µM (inactive) in assay [1]; 56.8 µM (inactive) in [2]; > 100 µM (inactive) in assay [8]; > 100 µM (inactive) in assay [3]; > 100 µM (inactive) in assay [4]; > 100 µM (inactive) in [5]. Moreover, the GI50 is 39.5 µM (inactive) in [9], > 100 µM (inactive) in assay [6] and 89.9 µM (inactive) in assay [7].
With `COC(=O)c1ccc(/N=N/N(C)COc2ccc(Br)cc2)cc1`, the GI50 in assay [1] was > 100 µM (inactive); in assay [2], > 100 µM (inactive); in assay [8], > 100 µM (inactive); in assay [3] it was > 54.6 µM (inactive); in assay [4] it was > 89.9 µM (inactive); in assay [6], > 81.1 µM (inactive). Moreover, the GI50 in assay [7] is > 100 µM (inactive).
As to `Sc1nc(S)nc(Oc2ccc(Cl)c(Cl)c2)n1`, the GI50 in [1] was 36.4 µM (inactive); in assay [2], 34.4 µM (inactive); in assay [8], 22.8 µM (inactive); in assay [3], 27.1 µM (inactive); in [4], 19 µM (inactive); in [5] it was 34.9 µM (inactive). Besides, the results for the GI50 in [9], in assay [6] and in [7] were 16.3 µM (inactive), 33.6 µM (inactive) and 25.4 µM (inactive), respectively.
On to `CC(C)Cc1cccc(C(C)C)c1NC(=O)CCC(=O)N/N=C1\C(=N/NC(=O)CCC(=O)Nc2c(C(C)C)cccc2C(C)C)C(c2ccc3c(c2)OCO3)Oc2ccccc21` (stereo not drawn), for which the GI50 is 94 µM (inactive) in assay [2]; > 100 µM (inactive) in assay [8]; 40.8 µM (inactive) in assay [3]; 76.9 µM (inactive) in assay [4]; 43.6 µM (inactive) in [5]; > 100 µM (inactive) in assay [6]. Moreover, in [7], the GI50 was > 100 µM (inactive).
Turning to `O=C(Cc1ccccc1)NN1C(=O)C(Cl)C1c1ccc(Cl)cc1` (stereo not drawn), the GI50 in [1], in assay [2], in assay [3], in assay [4], in assay [5] and in [6] was > 100 µM (inactive) throughout. Besides, the GI50 in assay [7] is > 100 µM (inactive).
With `C[C@]12CCC(=O)CC1CCCC2=O` (stereo partly drawn), the GI50 in [2], in [8], in [3], in assay [4], in [5] and in assay [9] was > 100 µM (inactive) throughout. Besides, the GI50 in [7] is > 100 µM (inactive).
On to `CC(C)OC(=O)c1cc(NC(=O)C(C)(C)C)c(F)cc1Cl`, for which the GI50 in assay [1], in assay [8], in assay [4], in assay [5], in [9] and in assay [6] was > 100 µM (inactive) throughout. In addition, the GI50 in assay [7] was > 100 µM (inactive).
As to `CP(=O)(CCSc1ccccc1)c1ccccc1` (stereo not drawn), the GI50 in assay [1], in assay [2], in assay [8], in assay [3], in [4] and in [5] was > 100 µM (inactive) each time. Also, the GI50 in [6] and in assay [7] was > 100 µM (inactive) throughout.
Regarding `S=C(N/N=C/c1ccccc1)NC12CC3CC(CC(C3)C1)C2`, the GI50 in [4] is 22.6 µM (inactive); in [5], 64.7 µM (inactive); in assay [9], 44.5 µM (inactive); in assay [6] it was 7.08 µM (inactive); in assay [7], 35.8 µM (inactive).
Take `O=c1cc[nH]c2c1ccc1ncccc12`: the GI50 in assay [1], in assay [2], in [8], in [3], in assay [4] and in [5] was > 100 µM (inactive) in each case. The GI50 in assay [9] and in assay [6] was > 100 µM (inactive) each time.
Consider `CC1S(=O)(=O)OCCOS1(=O)=O`, for which the GI50 is > 100 µM (inactive) in [1]; > 100 µM (inactive) in assay [2]; > 100 µM (inactive) in assay [8]; > 100 µM (inactive) in [3]; 60 µM (inactive) in assay [4]; > 100 µM (inactive) in assay [5]. In addition, the GI50 in assay [9] was 31.7 µM (inactive); in assay [6], > 100 µM (inactive).
For `COc1cc([C@@H]2c3cc4c(cc3[C@@H](NC(=O)c3ccc(C#N)cc3)C3COC(=O)[C@@H]32)OCO4)cc(OC)c1O` (stereo partly drawn), the GI50 in assay [1] is 55.1 µM (inactive); in [2], 6.03 µM (inactive); in assay [8] it was 1.26 µM (inactive); in assay [3], 1.64 µM (inactive); in assay [4] it was 0.0276 µM (active); in assay [5], 4.61 µM (inactive). In addition, in assay [6], the GI50 is 0.785 µM (active).
`CN1C/C(=C\c2ccc(C(=O)O)cc2)C(=O)/C(=C/c2ccc(C(=O)O)cc2)C1`: the GI50 in assay [1], in assay [2], in [8], in assay [3], in [4] and in assay [5] was > 100 µM (inactive) each time. Further, the GI50 in assay [9], in assay [6] and in assay [7] was > 100 µM (inactive) each time.
